Reference: patent US20250332154A1, “USE OF NAPHTHOQUINE PHOSPHATE IN PREPARATION OF A MEDICAMENT FOR TREATING AUTOIMMUNE DISEASES” (SHANGHAI PHARMACEUTICALS INDUSTRY CO., LTD, priority 2022, published 2025)
Counter-ions that a name gives are not always drawn. Like-named read-outs stand apart in the source and are kept apart here.

Key:
IL-6 = IL-6 production by LPS-induced RAW264.7 cells (ELISA); type: cell-based, mouse; details: for production of IL-6: LPS-induced RAW264.7, in words; for IC50: Mus musculus, LPS 10 μg/ml, RAW264.7
Experimental: RAW264.7 cells were inoculated into a 96-well plate at 1×10^5/well and allowed to adhere to the wall for 6 hours in a 37° C., 5% CO2 incubator. […] After the cells adhered to the wall, the stimulant LPS (final concentration: 10 μg/ml) and the gradient-diluted compounds were added. A corresponding stimulation control and a cell control (without stimulation) were set up. After the end of the culture, the cell culture supernatants were collected, and the levels of TNF-α, IL-1β and IL-6 were measured by ELISA.

[1] = test system: mouse whole spleen lymphocytes (ConA-induced T cell activation and proliferation); assay: ConA-induced lymphocyte proliferation assay (3H-thymidine); type: cell-based; details: for IC50: ConA 1 μg/ml, 48 hours, 3H-thymidine, read-out: ConA IC50
Experimental: BALB/c mice were sacrificed by cervical dislocation, and spleens were aseptically excised to prepare whole spleen lymphocytes. The cells were adjusted to the required concentration.
A suspension of mouse spleen lymphocytes was inoculated into a 96-well plate at 5×10^5/well, and ConA (final concentration: 1 μg/ml) or LPS (final concentration: 10 μg/ml) and the above 10 concentration gradients of the compound were added. Corresponding cell control wells without ConA and LPS, as well as medicament-free stimulated control wells, were set up. The cells were cultured in a 37° C., 5% CO2 incubator for 48 hours. Eight hours before the end of the culture, ^3H-thymidine was added, and the culture continued until the end of the experiment (i.e., the aforementioned 48 hours). The cells were collected onto glass fiber membranes using a cell collector.
ConA and LPS, as mitogens, stimulated proliferation and differentiation of T and B lymphocytes, respectively. This process is similar to the activation process of lymphocytes in vivo. Therefore, mitogen-induced lymphocyte proliferation is commonly used as an indicator to evaluate functionality of lymphocytes.

IL-10 = IL-10 secretion by TLRs-L-stimulated mouse whole spleen lymphocytes (ELISA); type: cell-based; details: Lymphocyte, 48 h
Experimental: BALB/c mice were sacrificed by cervical dislocation, and spleens were aseptically excised to prepare whole spleen lymphocytes. The cells were adjusted to 5×10^6 cells/ml. Hydroxychloroquine sulfate was diluted with a 3-fold gradient into 3 concentrations starting from 30 μM: 30, 10 and 3 μM; naphthoquine phosphate was diluted with a 3-fold gradient into 3 concentrations starting from 10 μM: 10, 3 and 1 μM.
Mouse spleen lymphocytes were inoculated into a 96-well plate at 100 μl/well, and the stimulant TLR4-L (final concentration: 10 μg/ml), TLR7-L (final concentration: 5 μg/ml) or TLR9-L (final concentration: 1 μM) and the compounds diluted with the above concentration gradients were added. A corresponding stimulation control and a cell control (without stimulation) were set up. The cells were cultured in a 37° C., 5% CO2 incubator for 48 hours. After the end of the culture, the cell culture supernatants were collected, and the levels of IL-1β, IL-6, and IL-10 were measured by ELISA.

[2] = Non-specific cytotoxicity assay (MTT), RAW264.7; type: cell-based, mouse; details: mouse, RAW264.7 cells
Experimental: RAW264.7 cells were inoculated into a 96-well plate at 1×10^5/well and allowed to adhere to the wall for 6 hours in a 37° C., 5% CO2 incubator. […] A corresponding solvent control (cell control) and a culture medium background control (blank control) were set up. The cells were cultured in a 37° C., 5% CO2 incubator for 48 hours. Fifteen minutes before the end of the culture, 20 μl of 5 mg/ml MTT was added. At the end of the culture, the supernatant was aspirated and discarded, 200 μl DMSO was added to dissolve the crystals.

mouse spleen lymphocytes = assay: Non-specific cytotoxicity assay (MTT), mouse spleen lymphocytes; type: cell-based; details: mouse whole spleen lymphocytes, 48 hours, listed as Hydroxychloroquine Sulfate (Zhongxi Sunve)
Experimental: BALB/c mice were sacrificed by cervical dislocation, and spleens were aseptically excised to prepare whole spleen lymphocytes. The cells were adjusted to the required concentration. The compound concentrations started at 250 μM and was diluted with a 4-fold gradient to obtain 10 concentrations: 250, 62.5, 15.625, 3.906, 0.977, 0.244, 0.061, 0.015, 0.004 and 0.001 μM.
A suspension of mouse spleen lymphocytes was inoculated into a 96-well plate at 8×10^5/well, and the above 10 concentration gradients of the compound were added. A corresponding cell control (i.e. spleen lymphocyte culture system without compound) and a RPMI 1640 culture medium background control (blank culture medium control) were set up. The cells were cultured in a 37° C., 5% CO2 incubator for 48 hours. Four hours before the end of the culture, 20 μl of 5 mg/ml MTT solution was added, and the reaction continued until the end of the culture (i.e. the aforementioned 48 hours). The supernatant was aspirated and discarded, 200 μl DMSO was added to each well to dissolve the crystals. […]. The absorbance value was measured at […] with a microplate reader (Spectra Max 190, Molecular Devices).

[3] = test system: adjuvant-induced arthritis in rats; assay: Adjuvant-induced arthritis in rats: arthritis scoring and foot swelling; type: in vivo, rat; details: FIG. 7

SMILES | production of IL-6 (IL-6) | IC50 (IL-6) [µM] | IC50 ([1]; listed as Hydroxychloroquine Sulfate (Zhongxi Sunve)) [µM] | IC50 ([1]; Mus musculus, Lymphocyte) [µM] | IC50 (IL-10; stimulant TLR4-L 10 μg/ml) [µM] | IC50 (IL-10; stimulant TLR7-L 5 μg/ml) [µM] | IC50 (IL-10; stimulant TLR9-L 1 μM) [µM] | CC50 at 48 h [2] [µM] | CC50 (mouse spleen lymphocytes) [µM] | effect on ConA-induced T cell activation and proliferation ([1]; in words) | clinical arthritis scores of the experimental rats ([3]; intragastric 25, 50, 100 mg/kg) | extent of foot swelling in rats ([3]; intragastric 25, 50, 100 mg/kg) | therapeutic effect in arthritic rats compared with hydroxychloroquine sulfate ([3]; same dose (100 mg/kg))
CCN(CCO)CCCC(C)Nc1ccnc2cc(Cl)ccc12 (centres unmarked) [Hydroxychloroquine Sulfate, hydroxychloroquine sulfate] | no significant effect | 16.5 | 17 | 17.1 | 3.19 | 1.11 | 3.3 | 24.4 | 25.2 |  |  |  | 
CC(C)(C)NCc1cc(Nc2ccnc3cc(Cl)ccc23)c2c(c1O)CCCC2.O=P(O)(O)O.O=P(O)(O)O [Naphthoquine Phosphate, Naphthoquine phosphate] | no significant effect | > 10 |  | 0.41 | 0.106 | 0.039 | 0.19 | 8.73 |  | significant inhibitory activity | improved | inhibited | superior to that of hydroxychloroquine sulfate at the same dose
